Read-outs that look alike come from different tables or passages of the source.
Experiments:
[1] = molecular target: T1, PI3Kα (Homo sapiens, UniProt P42336); experiment: PI3Kα molecular activity test (ADP-GLO); type: biochemical; details: for Selectivity (PI3Kδ IC50/PI3KαIC50): PI3Kδ IC50/PI3Kα IC50; for IC50: recombinant protein, 100 μM ATP, 2 hours at room temperature
T1 construct: purchased Carna Bioscience
Experimental: (§1) Instrument: ELISA Reader Envision™ (PerkinElmer, USA)
(§2) Materials: Human recombinant PI3K and PI3Kδ proteins, purchased from Carna Bioscience; ADP-GLO kit, purchased from Promega.
(§3) Take the PI3Kα Molecular Activity Test as an Example to Describe the Text Method of the PI3K Subtypes
(§4) PI3K-α recombinant protein and substrate ATP were diluted with kinase reaction buffer (50 mM Tris-HCl, pH 7.4, 2.1 mM DTT, 0.05% Tween-20, 10 mM MgCl2). […] The specific reaction system was 2% of DMSO, 0.8 ng/μL PI3K-α, and 100 μM ATP, the positive compound control groups and control wells were set, and there were 3 multiple-wells for each concentration of each sample. After incubating for 2 hours at room temperature, ADP-GLO Reagent and Kinase Detection Reagent were added respectively, and then Envision™ was used to detect the […] readings. The activity rate of the samples were calculated by the sample readings, and the calculation formula was: activity rate=(ODcompound−ODcontrol)/(ODDMSO−ODcontro) ×100%.

[2] = molecular target: T2, PI3Kδ (Homo sapiens, UniProt O00329); experiment: PI3Kδ molecular activity test (ADP-GLO); type: biochemical; details: recombinant protein
T2 construct: purchased Carna Bioscience
T2 sequence (O00329 whole entry): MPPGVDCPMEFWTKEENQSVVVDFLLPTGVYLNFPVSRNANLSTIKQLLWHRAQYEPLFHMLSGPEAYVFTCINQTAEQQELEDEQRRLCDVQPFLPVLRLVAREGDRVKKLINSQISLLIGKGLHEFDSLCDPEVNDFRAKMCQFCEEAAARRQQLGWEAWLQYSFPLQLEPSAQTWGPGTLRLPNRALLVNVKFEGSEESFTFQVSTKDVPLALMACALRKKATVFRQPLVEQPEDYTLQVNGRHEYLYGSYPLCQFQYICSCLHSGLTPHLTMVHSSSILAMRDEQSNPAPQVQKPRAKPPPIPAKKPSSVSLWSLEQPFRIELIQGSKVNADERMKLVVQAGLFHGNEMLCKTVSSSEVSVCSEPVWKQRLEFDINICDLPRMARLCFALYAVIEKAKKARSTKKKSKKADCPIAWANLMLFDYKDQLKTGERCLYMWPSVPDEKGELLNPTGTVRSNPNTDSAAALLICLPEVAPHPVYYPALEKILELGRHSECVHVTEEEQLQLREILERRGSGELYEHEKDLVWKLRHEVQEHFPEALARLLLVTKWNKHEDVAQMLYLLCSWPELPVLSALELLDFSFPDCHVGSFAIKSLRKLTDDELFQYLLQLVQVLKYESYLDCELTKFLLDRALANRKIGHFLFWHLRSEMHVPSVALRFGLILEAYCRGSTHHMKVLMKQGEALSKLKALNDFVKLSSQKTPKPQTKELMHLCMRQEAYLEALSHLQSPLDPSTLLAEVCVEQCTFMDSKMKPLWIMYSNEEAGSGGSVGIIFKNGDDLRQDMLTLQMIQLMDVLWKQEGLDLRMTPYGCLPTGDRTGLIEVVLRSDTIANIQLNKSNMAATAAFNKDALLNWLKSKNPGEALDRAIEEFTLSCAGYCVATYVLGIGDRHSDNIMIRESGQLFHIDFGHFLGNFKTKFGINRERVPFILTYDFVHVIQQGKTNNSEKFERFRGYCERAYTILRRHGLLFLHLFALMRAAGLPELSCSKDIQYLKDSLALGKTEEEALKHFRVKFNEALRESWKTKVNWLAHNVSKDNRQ
T2 sequence (P27986 whole entry partner): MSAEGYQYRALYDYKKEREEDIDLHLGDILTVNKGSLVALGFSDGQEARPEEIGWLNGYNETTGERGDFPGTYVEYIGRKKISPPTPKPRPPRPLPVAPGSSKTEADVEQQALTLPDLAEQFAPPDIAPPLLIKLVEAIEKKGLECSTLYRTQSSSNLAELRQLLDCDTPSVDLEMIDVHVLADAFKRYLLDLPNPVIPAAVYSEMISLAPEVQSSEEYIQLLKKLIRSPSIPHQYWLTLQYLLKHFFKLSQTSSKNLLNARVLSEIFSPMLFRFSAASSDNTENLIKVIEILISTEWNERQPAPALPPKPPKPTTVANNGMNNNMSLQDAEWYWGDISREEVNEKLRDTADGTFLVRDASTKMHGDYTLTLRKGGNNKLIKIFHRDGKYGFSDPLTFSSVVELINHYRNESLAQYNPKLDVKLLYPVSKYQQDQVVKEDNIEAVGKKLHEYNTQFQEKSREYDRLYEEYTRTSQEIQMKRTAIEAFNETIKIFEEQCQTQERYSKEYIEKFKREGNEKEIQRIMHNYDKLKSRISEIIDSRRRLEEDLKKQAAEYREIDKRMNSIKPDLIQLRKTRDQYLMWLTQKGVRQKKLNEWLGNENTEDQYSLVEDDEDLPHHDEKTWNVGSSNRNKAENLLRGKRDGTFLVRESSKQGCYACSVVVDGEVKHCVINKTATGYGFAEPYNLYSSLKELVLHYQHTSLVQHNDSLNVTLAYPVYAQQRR
Experimental: as §1, §2, §3, §4

[3] = system: MCF7 (PIK3CA mut); experiment: Tumor cell proliferation, CCK8 method, MCF7; type: cell-based, human; details: Homo sapiens
Experimental: (§5) The IC50 value was calculated using Graphpad Prism V5.0 software.

[4] = system: KPL4 (PIK3CA mut); experiment: Tumor cell proliferation, CCK8 method, KPL4; type: cell-based
Experimental: as §5

[5] = system: SW48 (PIK3CA mut); experiment: Tumor cell proliferation, CCK8 method, SW48; type: cell-based; details: Homo sapiens
Experimental: as §5

[6] = system: ZR-75-1 (PTEN loss); experiment: Tumor cell proliferation, CCK8 method, ZR-75-1; type: cell-based; details: Homo sapiens; CCK8, ZR-75-1
Experimental: as §5

[7] = Pharmacokinetic determination in SD rats, tail vein injection; type: in vivo; details: rat, plasma; male SD rats, intravenous, 1 mg/kg
Experimental: Healthy SD rats weighing 200±20 g, male, were randomly divided into groups with 6 rats in each group, and were administered by tail vein injection at a dose of 1 mg/kg. The blood sampling time points for pharmacokinetic analysis: 5 min, 15 min, 30 min, 2 h, 4 h, 6 h, 8 h, 24 h, and 48 h after administration. About 0.3 mL of whole blood was collected via the orbit and placed in a heparinized test tube, centrifugalized at 6000 rpm for 10 min to separate the plasma, and store at −80° C. for testing. The plasma concentrations of the each compounds were detected with an Agilent liquid mass spectrometry (LC-MS/MS, Agilent Jet Stream Electrometric spray ion), and the relevant pharmacokinetic parameters were calculated using the WinNonLin 7.0 pharmacokinetic software non-compartment model method.

[8] = system: Kasumi-1 cell line; experiment: In vivo efficacy, Kasumi-1 subcutaneous transplanted tumor in nude mice; details: 10 mg/Kg qd for 21 days, Kasumi-1 tumor, female nude mice, FIG. 1
Experimental: Female nude mice, weighing 20±3 g, were inoculated subcutaneously with Kasumi-1 cell line in their right axilla. The cell inoculation accounted for 1×10^7/mouse. After tumor formation, the diameter of the transplanted tumor was measured with a vernier caliper. When the tumor grown to 100-300 mm^3, the animals were divided into a model control group and administration groups with 6 […] in each group depending on body weight and tumor volume. The model control group was given the same amount of blank solvent. After grouping, the drugs were administered daily (qd) with a doge of 10 mg/Kg for 21 consecutive days. During the experiment, the diameter of the transplanted tumor and the weight of the mice were measured twice a week. The calculation formula of the tumor volume (TV) was: TV=½×a×b^2, where a and b represented length and width respectively. The relative tumor volume (RTV) was calculated from the measurement results, the calculation formula was: RTV=Vt/V0, where V0 was the tumor volume measured as grouping and administering (i.e. d0), and Vt was the tumor volume at each measurement. The evaluation index of anti-tumor activity was the relative tumor proliferation rate T/C(%), and the calculation formula was as follows: T/C(%)=(TRTV/CRTV)×100%, where TRTV: RTV of the treatment group; and CRTV: RTV of the negative control group.

[9] = background; cited from earlier work
[10] = CLL patients, background; cited from earlier work
[11] = CCK8, MCF7, read-out: MCF7 (PIK3CA mut) proliferation IC50
[12] = CCK8, KPL4, read-out: KPL4 (PIK3CA mut) proliferation IC50
[13] = CCK8, SW48, read-out: SW48 (PIK3CA mut) proliferation IC50

T1 sequence (P42336 whole entry): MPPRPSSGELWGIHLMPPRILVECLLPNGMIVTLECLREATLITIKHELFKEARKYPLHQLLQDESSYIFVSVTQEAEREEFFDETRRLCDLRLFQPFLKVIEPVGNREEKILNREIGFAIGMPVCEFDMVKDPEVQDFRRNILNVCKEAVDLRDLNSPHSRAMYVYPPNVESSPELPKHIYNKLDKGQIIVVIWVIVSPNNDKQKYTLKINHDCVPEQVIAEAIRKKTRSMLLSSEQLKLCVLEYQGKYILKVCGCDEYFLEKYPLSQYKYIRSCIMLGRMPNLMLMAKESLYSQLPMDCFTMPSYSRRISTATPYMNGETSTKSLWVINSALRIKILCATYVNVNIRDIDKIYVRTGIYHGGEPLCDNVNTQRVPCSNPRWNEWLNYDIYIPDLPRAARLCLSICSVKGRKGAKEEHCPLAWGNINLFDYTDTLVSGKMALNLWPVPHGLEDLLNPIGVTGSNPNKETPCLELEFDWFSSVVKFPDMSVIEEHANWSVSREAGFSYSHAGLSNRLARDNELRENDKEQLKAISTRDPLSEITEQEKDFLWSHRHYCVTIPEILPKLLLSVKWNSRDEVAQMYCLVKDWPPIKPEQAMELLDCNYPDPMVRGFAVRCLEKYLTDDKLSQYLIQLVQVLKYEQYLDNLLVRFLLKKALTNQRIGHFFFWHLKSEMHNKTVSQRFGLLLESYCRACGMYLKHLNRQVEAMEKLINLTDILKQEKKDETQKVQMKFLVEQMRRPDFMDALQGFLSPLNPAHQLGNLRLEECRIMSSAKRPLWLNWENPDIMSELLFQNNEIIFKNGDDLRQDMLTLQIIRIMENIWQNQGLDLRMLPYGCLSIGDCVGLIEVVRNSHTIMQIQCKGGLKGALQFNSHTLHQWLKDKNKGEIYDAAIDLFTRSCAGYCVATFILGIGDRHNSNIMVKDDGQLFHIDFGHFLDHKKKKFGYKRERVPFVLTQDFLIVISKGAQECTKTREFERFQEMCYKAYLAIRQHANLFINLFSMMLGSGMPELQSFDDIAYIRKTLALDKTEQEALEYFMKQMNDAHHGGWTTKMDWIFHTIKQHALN
T1 sequence (P27986 whole entry partner): as the sequence (P27986 whole entry partner) above

Structure (SMILES) | Selectivity (PI3Kδ IC50/PI3KαIC50) [1] | IC50 [1] | IC50 [2] | IC50 [3, 11] | IC50 [4, 12] | IC50 [5, 13] | IC50 [6] | Vd [7] | clearance [7] | half-life [7] | tumor growth inhibitory activity [8] | IC50 ([3]; MCF7, read-out: MCF7 (PIK3CA mut) proliferation IC50) | IC50 ([4]; KPL4, read-out: KPL4 (PIK3CA mut) proliferation IC50) | IC50 ([5]; SW48, read-out: SW48 (PIK3CA mut) proliferation IC50) | volume of distribution [9] | liver side effect [10]
COc1c(OCCCN2CCOCC2)ccc2c(=O)n(C)c(NC(=O)c3cnc(N)nc3)nc12 [8a-1] | II (“II” represents 5-10 times) | < 20 nM | < 20 nM | < 20 nM | < 20 nM | < 20 nM | < 20 nM | 4.2 L/kg | 33.3 mL/min/kg | 5.3 h |  |  |  |  |  | 
COc1c(OCC(N)=O)ccc2c(=O)n(C)c(NC(=O)c3cnc(N)nc3)nc12 [8a-2] | III (“III” represents >10 times) | < 20 nM | < 20 nM | < 20 nM | < 20 nM | < 20 nM | < 20 nM | 3.2 L/kg | 30 mL/min/kg | 4.9 h |  |  |  |  |  | 
COc1c(OC[C@@H](O)CN2CCOCC2)ccc2c(=O)n(C)c(NC(=O)c3cnc(N)nc3)nc12 [8a-27, (S)-2-amino-N-(7-(2-hydroxy-3-morpholinopropoxy)-8-methoxy-3-methyl-4-oxo-3,4-dihydroquinazolin-2-yl) pyrimidine-5-carboxamide] | II (“II” represents 5-10 times) | < 20 nM | 20 to 200 nM | < 20 nM | 20 to 200 nM | 20 to 200 nM | 200 to 1000 nM |  |  |  | strong tumor growth inhibitory activity |  |  |  |  | 
COc1c(OC[C@H](O)CN2CCOCC2)ccc2c(=O)n(C)c(NC(=O)c3cnc(N)nc3)nc12 [8a-28, (R)-2-amino-N-(7-(2-hydroxy-3-morpholinopropoxy)-8-methoxy-3-methyl-4-oxo-3,4-dihydroquinazolin-2-yl) pyrimidine-5-carboxamide] | II (“II” represents 5-10 times) | < 20 nM | 20 to 200 nM | < 20 nM | 20 to 200 nM | 20 to 200 nM | 200 to 1000 nM |  |  |  | strong tumor growth inhibitory activity |  |  |  |  | 
COc1c(OCCC(N)=O)ccc2c(=O)n(C)c(NC(=O)c3cnc(N)nc3)cc12 [8a′-3] | III (“III” represents >10 times) | < 20 nM | 20 to 200 nM |  |  |  |  | 2.9 L/kg | 41.7 mL/min/kg | 6.7 h |  |  |  |  |  | 
CCn1c(NC(=O)c2cnc(N)nc2)nc2c(OC)c(OCCCN3CCOCC3)ccc2c1=O [8b-1] |  |  |  | < 20 nM | < 20 nM | < 20 nM | < 20 nM | 3.8 L/kg | 31.7 mL/min/kg | 5.2 h |  |  |  |  |  | 
CCn1c(NC(=O)c2cnc(N)nc2)nc2c(OC)c(OCCCC(N)=O)ccc2c1=O [8b-9] | III (“III” represents >10 times) | < 20 nM | 20 to 200 nM |  |  |  |  | 3.9 L/kg | 26.7 mL/min/kg | 4.2 h |  |  |  |  |  | 
CCn1c(NC(=O)c2cnc(N)nc2)nc2c3c(ccc2c1=O)OCCCO3 [14b-3] |  |  |  |  |  |  |  | 2.4 L/kg | 38.3 mL/min/kg | 4.7 h |  |  |  |  |  | 
CCn1c(NC(=O)c2cnc(N)nc2)nc2c3c(ccc2c1=O)OCCOCCOCCOCCO3 [14b-11] | I (“I” represents <5 times) | 20 to 200 nM | 20 to 200 nM | < 20 nM | 20 to 200 nM | 200 to 1000 nM | 200 to 1000 nM |  |  |  |  |  |  |  |  | 
CCn1c(NC(=O)c2cnc(N)nc2)cc2c3c(ccc2c1=O)OCO3 [14b′-1] |  |  |  |  |  |  |  | 3.9 L/kg | 65 mL/min/kg | 4.2 h |  |  |  |  |  | 
CCn1c(NC(=O)c2cnc(N)nc2)cc2c3c(ccc2c1=O)OCCOCCOCCO3 [14b′-6] | I (“I” represents <5 times) | < 20 nM | < 20 nM | < 20 nM | 20 to 200 nM | 20 to 200 nM | 20 to 200 nM |  |  |  |  |  |  |  |  | 
COc1c(OCCCN2CCOCC2)ccc2c1N=C(NC(=O)c1cnc(N)nc1)N1CCN=C21 [Copanlisib, reference compound] |  |  |  |  |  |  | < 20 nM | 33.5 L/kg | 36.7 mL/min/kg | 8.9 h |  | < 20 nM | < 20 nM | < 20 nM | 32.6 L/kg | 
CC[C@H](Nc1ncnc2[nH]cnc12)c1nc2cccc(F)c2c(=O)n1-c1ccccc1 [Idelalisib] |  |  |  |  |  |  |  |  |  |  |  |  |  |  |  | elevated transaminase

— patent publication US12404269B2, “Aminoquinazolinone and aminoisoquinolinone derivatives and application thereof” (ZHEJIANG UNIVERSITY, priority 2018, dated 2025)
